Results: ChEMBL document CHEMBL4725367, “Novel anticancer Hsp90 inhibitor disubstituted pyrazolyl 2-aminopyrimidine compound 7t induces cell cycle arrest and apoptosis via mitochondrial pathway in MCF-7 cells” (Bioorg Med Chem Lett, 2020)
Active and inactive are the calls of the source. The rule behind the calls is not given here.

How the values were obtained:
[1] = molecular target: T1, Heat shock protein HSP90 (Homo sapiens) (UniProt P07900+P08238); experiment: Inhibition of HSP90 in human MCF7 cells assessed as cell cycle arrest by measuring accumulation at S phase at 1 uM measured after 24 hrs by RNaseA/propidium iodide staining based flow cytometric analysis (reference value: 7.08 %); design: scale not given: the % may be the effect or the level left
[2] = molecular target: T1, Heat shock protein HSP90 (Homo sapiens); experiment: Inhibition of HSP90 in human MCF7 cells assessed as increase in ROS generation by measuring fluorescence intensity at 10 uM after 24 hrs by DCFDA staining based flow cytometry; type: cell-based
[3] = molecular target: T1, Heat shock protein HSP90 (Homo sapiens); experiment: Inhibition of HSP90 in human MCF7 cells assessed as induction of apoptosis by measuring late apototic cells at 1 uM measured after 24 hrs by annexinV-FITC/propidium iodide staining based flow cytometry (reference value: 7.91 %); type: cell-based; design: scale not given: the % may be the effect or the level left
[4] = molecular target: T1, Heat shock protein HSP90 (Homo sapiens); experiment: Inhibition of HSP90 in human MCF7 cells assessed as induction of apoptosis by measuring necrotic cells at 1 uM measured after 24 hrs by annexinV-FITC/propidium iodide staining based flow cytometry (reference value: 0.01 %); type: cell-based; design: scale not given: the % may be the effect or the level left
[5] = molecular target: T1, Heat shock protein HSP90 (Homo sapiens); experiment: Inhibition of HSP90 in human MCF7 cells assessed as induction of mitochondrial membrane potential loss by measuring cell population with mitochondrial membrane potential collapse at 1 uM after 24 hrs by JC1 staining-based flow cytometry analysis (reference value: 6.53 %); design: scale not given: the % may be the effect or the level left
[6] = molecular target: T1, Heat shock protein HSP90 (Homo sapiens); experiment: Inhibition of HSP90 in human MCF7 cells assessed as cell cycle arrest by measuring accumulation at Sub-G1 phase at 1 uM measured after 24 hrs by RNaseA/propidium iodide staining based flow cytometric analysis (reference value: 3.75 %); design: scale not given: the % may be the effect or the level left
[7] = molecular target: T1, Heat shock protein HSP90 (Homo sapiens); experiment: Inhibition of HSP90 in human MCF7 cells assessed as induction of morphological changes by measuring apoptotic body formation at 1 uM by acridine orange/ethidium bromide staining based fluorescence microscopy analysis; type: cell-based
[8] = molecular target: T1, Heat shock protein HSP90 (Homo sapiens); experiment: Inhibition of HSP90 in human MCF7 cells assessed as induction of mitochondrial membrane potential loss by measuring cell population with intact mitochondrial membrane potential at 1 uM after 24 hrs by JC1 staining-based flow cytometry analysis (reference value: 92.39 %); design: scale not given: the % may be the effect or the level left
[9] = molecular target: T1, Heat shock protein HSP90 (Homo sapiens); experiment: Inhibition of HSP90 in human MCF7 cells assessed as induction of apoptosis by measuring live cells at 1 uM measured after 24 hrs by annexinV-FITC/propidium iodide staining based flow cytometry (reference value: 90.77 %); type: cell-based; design: scale not given: the % may be the effect or the level left
[10] = molecular target: T1, Heat shock protein HSP90 (Homo sapiens); experiment: Inhibition of HSP90 in human MCF7 cells assessed as induction of nuclear morphological changes by measuring nuclear fragmentation at 1 uM by DAPI staining based fluorescence microscopy analysis; type: cell-based
[11] = molecular target: T1, Heat shock protein HSP90 (Homo sapiens); experiment: Inhibition of HSP90 in human MCF7 cells assessed as induction of morphological changes by measuring membrane blebbing at 1 uM by acridine orange/ethidium bromide staining based fluorescence microscopy analysis; type: cell-based
[12] = molecular target: T1, Heat shock protein HSP90 (Homo sapiens); experiment: Inhibition of HSP90 in human MCF7 cells assessed as induction of apoptosis by measuring early apototic cells at 1 uM measured after 24 hrs by annexinV-FITC/propidium iodide staining based flow cytometry (reference value: 1.31 %); type: cell-based; design: scale not given: the % may be the effect or the level left
[13] = molecular target: T1, Heat shock protein HSP90 (Homo sapiens); experiment: Inhibition of HSP90 in human MCF7 cells assessed as induction of apoptosis by measuring total apoptotic and dead cell population at 1 uM measured after 24 hrs by annexinV-FITC/propidium iodide staining based flow cytometry (reference value: 9.23 %); design: scale not given: the % may be the effect or the level left
[14] = molecular target: T1, Heat shock protein HSP90 (Homo sapiens); experiment: Inhibition of HSP90 in human MCF7 cells assessed as induction of nuclear morphological changes by measuring horse shoe shaped nuclei formation at 1 uM by DAPI staining based fluorescence microscopy analysis; type: cell-based
[15] = molecular target: T1, Heat shock protein HSP90 (Homo sapiens); experiment: Inhibition of HSP90 in human MCF7 cells assessed as induction of morphological changes by measuring nuclei condensation at 1 uM by acridine orange/ethidium bromide staining based fluorescence microscopy analysis; type: cell-based
[16] = molecular target: T1, Heat shock protein HSP90 (Homo sapiens); experiment: Inhibition of HSP90 in human MCF7 cells assessed as cell cycle arrest by measuring accumulation at G2/M phase at 1 uM measured after 24 hrs by RNaseA/propidium iodide staining based flow cytometric analysis (reference value: 25.08 %); design: scale not given: the % may be the effect or the level left
[17] = molecular target: T1, Heat shock protein HSP90 (Homo sapiens); experiment: Inhibition of HSP90 in human MCF7 cells assessed as cell cycle arrest by measuring accumulation at G0/G1 phase at 1 uM measured after 24 hrs by RNaseA/propidium iodide staining based flow cytometric analysis (reference value: 39.10 %); design: scale not given: the % may be the effect or the level left

With O=c1[nH]cc(F)c(=O)[nH]1 the Activity [1] was 7.99%, the inhibition [2] was “Active” and the Activity [3] was 27.2%. It also gave an Activity [4] of 0.36%, an Activity [5] of 26.8% and an Activity [6] of 12.2%. The inhibition [7] was “Active”, the Activity [8] was 70.3% and the Activity [9] was 70.5%. The Activity [10] was “Active”, the inhibition [11] was “Active” and the Activity [12] was 1.94%. The Activity [13] was 29.5%, the inhibition [14] was “Active” and the inhibition [15] was “Active”. For the same molecule, the Activity [16] was 26.4% and the Activity [17] was 27.4%.
